Results taken from ChEMBL document CHEMBL6177997, “Design, Synthesis, and Evaluation of Novel ROCK Inhibitors for Glaucoma Treatment: Insights into In Vitro and In Vivo Efficacy and Safety” (J Med Chem, 2025).
Activity calls are given as the source filed them. The calls are words filed in the database; no cut-off is given here.

Legend:
[1] = species: Oryctolagus cuniculus; experiment: Anti-glaucoma activity in methylcellulose-induced acute intraocular hypertensive rabbit model assessed as reduction in intraocular pressure at 0.1 %, TOP measured at 2 hrs; type: functional
[2] = Toxicity in rabbit assessed as appearance of conjunctival congestion by measuring ocular irritation score at 0.1 % TOP administration on left eye measured after 7 days by draize eye irritation test; type: tissue-based, Oryctolagus cuniculus; conditions: in vivo, topical_or_ocular, 168 h, time 7 day
[3] = tested on: HTM; experiment: Induction of morphological changes in human HTM cells assessed as appearance of rounded cells at 15 uM incubated for 10 hrs by light microscopic analysis; type: functional, cell-based
[4] = species: Oryctolagus cuniculus; experiment: Anti-glaucoma activity in methylcellulose-induced high acute intraocular hypertensive rabbit model assessed as reduction in intraocular pressure at 0.1 %, TOP measured at 4 hrs; type: functional
[5] = Toxicity in rabbit assessed as appearance of conjunctival congestion by measuring ocular irritation score at 0.1 % TOP administration on left eye measured on day 4 by draize eye irritation test; type: tissue-based, Oryctolagus cuniculus; conditions: in vivo, topical_or_ocular, 96 h, time 4 day
[6] = tested on: Mitochondrial membrane; experiment: Induction of mitochondrial membrane potential in human HTM cells at 1 uM incubated for 24 hrs by JC-1 staining based flow cytometry analysis
[7] = species: Oryctolagus cuniculus; experiment: Anti-glaucoma activity in methylcellulose-induced acute intraocular hypertensive rabbit model assessed as reduction in intraocular pressure at 0.1 %, TOP measured at 8 hrs; type: functional
[8] = tested on: HTM; experiment: Inhibition of TGF-beta2 induced alpha-SMA expression in human HTM cells at 1 uM pretreated with compound for 2 hrs followed by TGF-beta2 induction and measured after 24 hrs; type: functional, cell-based; conditions: time 26.0 hrs
[9] = tested on: HTM; experiment: Inhibition of paxillin expression in human HTM cells at 5 uM; type: functional, cell-based
[10] = tested on: HTM; experiment: Induction of F-actin depolymerization in human HTM cells at 5 uM incubated for 4 hrs by rhodamine-phalloidin staining based analysis; type: cell-based
[11] = Cytotoxicity against human HTM cells assessed as reduction in cell viability at 15 uM incubated for 24 hrs by MTT assay relative to control; type: toxicity, cell-based
[12] = tested on: HTM; experiment: Inhibition of TGF-beta2 induced collagen 1A expression in human HTM cells at 1 uM pretreated with compound for 2 hrs followed by TGF-beta2 induction and measured after 24 hrs; type: functional, cell-based; conditions: time 26.0 hrs
[13] = Induction of apoptosis in H2O2-induced human HTM cells at 1 uM pretreated with compound for 1 hr followed by H2O2 induction and measured after 2 hrs by Annexin V AF647/PI staining based flow cytometry analysis (reference value: 13.47%); type: functional; conditions: time 3 hrs
[14] = species: Oryctolagus cuniculus; experiment: Anti-glaucoma activity in methylcellulose-induced acute intraocular hypertensive rabbit model assessed as reduction in intraocular pressure at 0.1 %, TOP measured at 4 hrs; type: functional
[15] = Cytotoxicity against human HTM cells assessed as reduction in cell viability at 45 uM incubated for 24 hrs by MTT assay relative to control; type: toxicity, cell-based
[16] = tested on: HTM; experiment: Induction of morphological changes in human HTM cells assessed as appearance of rounded cells at 45 uM incubated for 10 hrs by light microscopic analysis; type: functional, cell-based
[17] = tested on: HTM; experiment: Inhibition of H2O2-induced ROS production in human HTM cells assessed as decrease in green fluorescence at 1 uM preincubated for 1 hrs followed by H2O2 induction for 2 hrs and measured after 30 mins by DCFH-DA based fluorescence microscopic analysis; type: functional, cell-based; conditions: time 3.5 hrs
[18] = target: T1, Rho-associated protein kinase 1 (Homo sapiens, UniProt Q13464); experiment: Inhibition of ROCK1 (unknown origin) incubated for 40 mins in presence of ATP by ADP-glo assay
Target sequence in this assay (Q13464 whole entry): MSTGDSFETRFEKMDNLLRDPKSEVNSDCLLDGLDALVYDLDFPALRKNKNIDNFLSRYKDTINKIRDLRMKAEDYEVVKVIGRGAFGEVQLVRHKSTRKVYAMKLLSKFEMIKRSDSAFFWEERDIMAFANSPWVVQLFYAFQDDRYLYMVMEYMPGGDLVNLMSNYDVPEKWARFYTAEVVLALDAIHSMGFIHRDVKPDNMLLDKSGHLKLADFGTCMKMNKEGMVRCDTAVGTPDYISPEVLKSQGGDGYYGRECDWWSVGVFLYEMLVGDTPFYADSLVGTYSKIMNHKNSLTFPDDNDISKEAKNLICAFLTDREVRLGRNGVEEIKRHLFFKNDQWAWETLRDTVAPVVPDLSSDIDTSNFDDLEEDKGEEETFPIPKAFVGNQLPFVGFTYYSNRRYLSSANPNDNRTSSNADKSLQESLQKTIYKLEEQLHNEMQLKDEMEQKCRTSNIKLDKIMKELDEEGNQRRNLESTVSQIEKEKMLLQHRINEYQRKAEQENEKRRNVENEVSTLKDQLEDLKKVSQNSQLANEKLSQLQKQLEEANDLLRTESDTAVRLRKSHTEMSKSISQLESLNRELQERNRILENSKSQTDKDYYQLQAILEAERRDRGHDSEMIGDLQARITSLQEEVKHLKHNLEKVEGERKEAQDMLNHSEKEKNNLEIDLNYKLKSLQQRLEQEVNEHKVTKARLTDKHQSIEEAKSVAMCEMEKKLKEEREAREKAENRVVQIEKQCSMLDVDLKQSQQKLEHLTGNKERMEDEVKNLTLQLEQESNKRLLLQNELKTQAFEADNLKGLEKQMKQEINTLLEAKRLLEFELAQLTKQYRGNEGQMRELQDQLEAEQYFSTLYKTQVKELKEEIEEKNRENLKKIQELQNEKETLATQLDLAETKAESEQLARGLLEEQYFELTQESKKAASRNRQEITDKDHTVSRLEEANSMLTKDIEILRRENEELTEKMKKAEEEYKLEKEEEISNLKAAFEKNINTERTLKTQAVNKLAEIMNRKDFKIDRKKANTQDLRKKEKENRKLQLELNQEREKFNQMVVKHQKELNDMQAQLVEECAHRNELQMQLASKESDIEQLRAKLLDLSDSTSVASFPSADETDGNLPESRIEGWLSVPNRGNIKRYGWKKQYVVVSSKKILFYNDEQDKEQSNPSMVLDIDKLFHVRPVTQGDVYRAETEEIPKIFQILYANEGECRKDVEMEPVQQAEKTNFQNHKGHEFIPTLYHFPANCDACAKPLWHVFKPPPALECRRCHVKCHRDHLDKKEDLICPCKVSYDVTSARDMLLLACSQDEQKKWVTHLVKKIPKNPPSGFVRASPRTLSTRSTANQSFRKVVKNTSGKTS

[19] = Cytotoxicity against human HTM cells assessed as inhibition of cell proliferation at 45 uM incubated for 24 hrs by MTT assay; type: toxicity, cell-based
[20] = tested on: HTM; experiment: Anti-inflammatory activity against human HTM cells assessed as inhibition of H2O2-induced i-NOS secretion; type: functional, cell-based
[21] = target: T1, Rho-associated protein kinase 1; experiment: Inhibition of human ROCK1 using magnesium acetate as substrate at 1 uM measured after 120 mins in presence of [gamma33P]ATP by scintillation counting method relative to control
[22] = species: Homo sapiens; experiment: Inhibition of human PKB using magnesium acetate as substrate at 1 uM measured after 120 mins in presence of [gamma33P]ATP by scintillation counting method relative to control
[23] = target: Mitogen-activated protein kinase kinase kinase kinase 4 (Homo sapiens) (UniProt O95819); experiment: Inhibition of human HGK using magnesium acetate as substrate at 1 uM measured after 120 mins in presence of [gamma33P]ATP by scintillation counting method relative to control
[24] = Toxicity in rabbit assessed as appearance of conjunctival congestion by measuring ocular irritation score at 0.1 % TOP administration on left eye measured at 7 days by draize eye irritation test; type: tissue-based, Oryctolagus cuniculus; conditions: in vivo, topical_or_ocular, 168 h, time 7 day
[25] = tested on: HTM; experiment: Inhibition of paxillin expression in human HTM cells at 0.02 to 5 uM; type: functional, cell-based; conditions: dose 0.02-5 µM
[26] = tested on: HTM; experiment: Induction of morphological changes in human HTM cells at 3 uM incubated for 10 hrs by light microscopic analysis; type: functional, cell-based
[27] = target: Protein kinase C (PKC) (Homo sapiens) (UniProt O94806+P41743+P17252+P05129+Q05655+P05771+Q05513+Q02156+P24723+Q15139+Q04759); experiment: Inhibition of human PKC using magnesium acetate as substrate at 1 uM measured after 120 mins in presence of [gamma33P]ATP by scintillation counting method relative to control; type: protein assay
[28] = tested on: HTM; experiment: Anti-inflammatory activity against human HTM cells assessed as inhibition of H2O2-induced NF-kappaB secretion; type: functional, cell-based
[29] = target: MAP kinase-interacting serine/threonine-protein kinase 2 (Homo sapiens) (UniProt Q9HBH9); experiment: Inhibition of MNK2 (unknown origin) at 5 uM preincubated for 10 mins followed by substrate addition and measured after 60 mins by ADP-glo kinase assay relative to control; conditions: time 70.0 min
[30] = target: Serine/threonine-protein kinase SIK2 (Homo sapiens) (UniProt Q9H0K1); experiment: Inhibition of human QIK using magnesium acetate as substrate at 1 uM measured after 120 mins in presence of [gamma33P]ATP by scintillation counting method relative to control
[31] = tested on: HTM; experiment: Inhibition of cell migration in human HTM cells at 1 uM incubated for 24 to 48 hrs by wound healing assay; type: functional, cell-based; conditions: time 24-48 hrs
[32] = tested on: HTM; experiment: Induction of morphological changes in human HTM cells assessed as appearance of cell contraction at 15 uM incubated for 10 hrs by light microscopic analysis; type: functional, cell-based
[33] = target: T2, Rho-associated protein kinase 2 (Homo sapiens, UniProt O75116); experiment: Inhibition of ROCK2 (unknown origin) incubated for 40 mins in presence of ATP by ADP-glo assay
Target sequence in this assay (O75116 whole entry): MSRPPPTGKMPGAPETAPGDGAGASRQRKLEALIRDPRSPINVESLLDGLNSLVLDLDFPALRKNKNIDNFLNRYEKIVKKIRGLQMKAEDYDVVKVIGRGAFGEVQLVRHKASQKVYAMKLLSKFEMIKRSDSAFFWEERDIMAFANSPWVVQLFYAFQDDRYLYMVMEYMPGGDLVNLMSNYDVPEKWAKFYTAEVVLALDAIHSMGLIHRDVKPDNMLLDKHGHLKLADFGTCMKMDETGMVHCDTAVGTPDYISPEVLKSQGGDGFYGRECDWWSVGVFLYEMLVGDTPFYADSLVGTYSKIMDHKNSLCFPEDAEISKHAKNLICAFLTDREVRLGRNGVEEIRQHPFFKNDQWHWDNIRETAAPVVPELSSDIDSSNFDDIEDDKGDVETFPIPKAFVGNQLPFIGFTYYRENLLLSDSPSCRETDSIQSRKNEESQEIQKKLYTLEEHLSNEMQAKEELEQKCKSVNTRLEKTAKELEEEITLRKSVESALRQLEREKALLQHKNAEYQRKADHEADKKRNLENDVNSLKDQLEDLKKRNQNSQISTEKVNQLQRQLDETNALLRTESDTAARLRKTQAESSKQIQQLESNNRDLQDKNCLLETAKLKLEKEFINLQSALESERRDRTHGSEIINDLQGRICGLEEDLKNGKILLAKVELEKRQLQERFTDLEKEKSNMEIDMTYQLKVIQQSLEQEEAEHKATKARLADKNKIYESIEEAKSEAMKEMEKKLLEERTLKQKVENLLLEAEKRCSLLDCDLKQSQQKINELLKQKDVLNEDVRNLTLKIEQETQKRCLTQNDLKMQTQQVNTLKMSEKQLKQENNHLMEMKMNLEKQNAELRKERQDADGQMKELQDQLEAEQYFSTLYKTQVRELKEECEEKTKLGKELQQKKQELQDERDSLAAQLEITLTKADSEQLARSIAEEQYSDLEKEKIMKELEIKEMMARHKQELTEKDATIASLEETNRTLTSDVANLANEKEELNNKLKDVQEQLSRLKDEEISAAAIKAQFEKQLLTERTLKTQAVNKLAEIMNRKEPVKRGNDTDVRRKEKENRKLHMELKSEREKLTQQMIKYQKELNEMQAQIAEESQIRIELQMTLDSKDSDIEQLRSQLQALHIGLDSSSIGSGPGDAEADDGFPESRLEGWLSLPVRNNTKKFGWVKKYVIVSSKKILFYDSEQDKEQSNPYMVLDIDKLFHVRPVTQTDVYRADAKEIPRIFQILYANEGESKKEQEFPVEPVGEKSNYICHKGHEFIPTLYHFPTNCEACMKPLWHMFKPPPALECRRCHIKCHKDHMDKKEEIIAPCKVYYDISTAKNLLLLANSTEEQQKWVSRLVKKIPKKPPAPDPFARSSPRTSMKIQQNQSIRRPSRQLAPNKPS

[34] = target: T3, MAP kinase-interacting serine/threonine-protein kinase 1 (Homo sapiens, UniProt Q9BUB5); experiment: Inhibition of human MNK1 using magnesium acetate as substrate at 1 uM measured after 120 mins in presence of [gamma33P]ATP by scintillation counting method relative to control
Target sequence in this assay (Q9BUB5 whole entry, looked up): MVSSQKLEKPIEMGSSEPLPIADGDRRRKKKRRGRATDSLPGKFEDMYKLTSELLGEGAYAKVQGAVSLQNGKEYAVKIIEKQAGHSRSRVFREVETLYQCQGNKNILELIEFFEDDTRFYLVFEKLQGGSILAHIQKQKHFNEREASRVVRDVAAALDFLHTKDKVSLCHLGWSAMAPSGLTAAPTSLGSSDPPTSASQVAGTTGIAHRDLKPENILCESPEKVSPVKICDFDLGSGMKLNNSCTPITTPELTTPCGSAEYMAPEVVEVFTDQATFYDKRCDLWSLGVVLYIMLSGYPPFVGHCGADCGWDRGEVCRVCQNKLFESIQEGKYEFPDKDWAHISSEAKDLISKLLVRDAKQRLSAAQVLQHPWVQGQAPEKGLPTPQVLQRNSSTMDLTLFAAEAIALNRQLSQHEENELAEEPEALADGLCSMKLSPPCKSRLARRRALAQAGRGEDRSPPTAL

[35] = target: T3, MAP kinase-interacting serine/threonine-protein kinase 1; experiment: Inhibition of MNK1 (unknown origin) at 5 uM preincubated for 10 mins followed by substrate addition and measured after 60 mins by ADP-glo kinase assay relative to control; conditions: time 70.0 min
Target sequence in this assay (Q9BUB5 whole entry, looked up): as above

[36] = tested on: HTM; experiment: Anti-inflammatory activity against human HTM cells assessed as inhibition of H2O2-induced IL-6 secretion; type: functional, cell-based
[37] = tested on: HTM; experiment: Induction of morphological changes in human HTM cells assessed as appearance of cell contraction at 45 uM incubated for 10 hrs by light microscopic analysis; type: functional, cell-based
[38] = species: Homo sapiens; experiment: Inhibition of human PKA using magnesium acetate as substrate at 1 uM measured after 120 mins in presence of [gamma33P]ATP by scintillation counting method relative to control
[39] = tested on: HTM; experiment: Induction of F-actin depolymerization in human HTM cells at 1 to 5 uM incubated for 4 hrs by rhodamine-phalloidin staining based analysis; type: cell-based; conditions: dose 1-5 µM
[40] = target: T2, Rho-associated protein kinase 2; experiment: Inhibition of human ROCK2 using magnesium acetate as substrate at 1 uM measured after 120 mins in presence of [gamma33P]ATP by scintillation counting method relative to control
Target sequence in this assay (O75116 whole entry, looked up): as the sequence (O75116 whole entry) above

[41] = tested on: HTM; experiment: Induction of morphological changes in human HTM cells at 0.1 uM incubated for 10 hrs in presence of eFT508 by light microscopic analysis; type: functional, cell-based
[42] = target: MAP kinase-interacting serine/threonine-protein kinase 2 (Homo sapiens) (UniProt Q9HBH9); experiment: Inhibition of human MNK2 using magnesium acetate as substrate at 1 uM measured after 120 mins in presence of [gamma33P]ATP by scintillation counting method relative to control
[43] = target: T3, MAP kinase-interacting serine/threonine-protein kinase 1; experiment: Inhibition of MNK1 (unknown origin) preincubated for 10 mins followed by substrate addition and measured after 60 mins by ADP-glo kinase assay
Target sequence in this assay (Q9BUB5 whole entry): as the sequence (Q9BUB5 whole entry, looked up) above

[44] = target: T2, Rho-associated protein kinase 2; experiment: Inhibition of ROCK2 (unknown origin) relative to control; conditions: concentration not given here
Target sequence in this assay (O75116 whole entry, looked up): as the sequence (O75116 whole entry) above

Chain of MAP kinase-interacting serine/threonine-protein kinase 2 (Homo sapiens) (Q9HBH9 whole entry, looked up): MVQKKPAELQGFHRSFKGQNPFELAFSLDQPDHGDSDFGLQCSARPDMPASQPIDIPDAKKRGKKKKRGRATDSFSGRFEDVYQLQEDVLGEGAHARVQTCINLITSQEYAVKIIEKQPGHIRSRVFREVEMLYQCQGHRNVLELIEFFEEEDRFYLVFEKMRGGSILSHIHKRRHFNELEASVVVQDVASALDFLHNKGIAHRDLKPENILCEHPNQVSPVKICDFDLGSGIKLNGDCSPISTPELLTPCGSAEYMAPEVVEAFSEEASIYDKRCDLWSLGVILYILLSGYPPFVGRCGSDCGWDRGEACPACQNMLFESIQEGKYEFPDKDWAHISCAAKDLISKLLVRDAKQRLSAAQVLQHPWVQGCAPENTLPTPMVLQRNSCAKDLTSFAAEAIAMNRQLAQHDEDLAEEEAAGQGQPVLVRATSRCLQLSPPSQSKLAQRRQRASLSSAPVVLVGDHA
Chain of Serine/threonine-protein kinase SIK2 (Homo sapiens) (Q9H0K1 whole entry, looked up): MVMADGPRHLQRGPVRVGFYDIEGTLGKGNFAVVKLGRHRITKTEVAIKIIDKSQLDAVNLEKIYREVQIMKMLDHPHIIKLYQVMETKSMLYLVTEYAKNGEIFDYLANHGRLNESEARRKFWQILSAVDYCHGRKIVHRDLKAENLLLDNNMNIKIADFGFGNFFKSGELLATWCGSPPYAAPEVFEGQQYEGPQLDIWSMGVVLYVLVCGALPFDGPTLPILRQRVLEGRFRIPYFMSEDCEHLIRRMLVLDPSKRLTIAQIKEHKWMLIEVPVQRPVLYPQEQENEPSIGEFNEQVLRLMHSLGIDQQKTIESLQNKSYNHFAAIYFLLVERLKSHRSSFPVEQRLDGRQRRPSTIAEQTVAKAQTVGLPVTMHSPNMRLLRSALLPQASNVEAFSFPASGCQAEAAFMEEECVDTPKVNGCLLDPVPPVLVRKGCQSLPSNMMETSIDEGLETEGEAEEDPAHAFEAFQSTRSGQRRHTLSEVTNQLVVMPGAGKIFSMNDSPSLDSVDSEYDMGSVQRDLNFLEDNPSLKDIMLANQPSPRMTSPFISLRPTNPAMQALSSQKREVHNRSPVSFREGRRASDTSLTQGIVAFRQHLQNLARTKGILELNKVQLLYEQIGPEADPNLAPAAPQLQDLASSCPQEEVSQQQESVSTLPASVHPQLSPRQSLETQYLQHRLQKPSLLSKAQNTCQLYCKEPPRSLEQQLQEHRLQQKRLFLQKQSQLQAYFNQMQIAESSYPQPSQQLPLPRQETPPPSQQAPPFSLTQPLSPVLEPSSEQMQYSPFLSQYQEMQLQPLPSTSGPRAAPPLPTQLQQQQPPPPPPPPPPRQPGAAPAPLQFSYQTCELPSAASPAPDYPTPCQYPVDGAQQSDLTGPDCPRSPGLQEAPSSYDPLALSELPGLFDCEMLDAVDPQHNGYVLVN

| SMILES | Activity [1] | Activity [4] | Activity [6] | Activity [7] | inhibition [8] | inhibition [9] | Activity [10] | inhibition [12] | Activity [13] | Activity [14] | inhibition [17] | IC50 [18] | Activity [19] | Activity [20] | Activity [24] | inhibition [25] | Activity [26] | inhibition [28] | inhibition [31] | Activity [32] | also measured |
| --- | --- | --- | --- | --- | --- | --- | --- | --- | --- | --- | --- | --- | --- | --- | --- | --- | --- | --- | --- | --- | --- |
| Cc1ccc(C(=O)OCc2ccc([C@@H](CN)C(=O)Nc3ccc4cnccc4c3)cc2)c(C)c1 | 8.16 mmHg | 9.5 mmHg | inactive | 4.7 mmHg | Active | Active | Active | Active | 43.02% | 3.55 mmHg | Active | – | – | – | – | – | – | – | – | – | Activity [2]: Toxic; Activity [3]: Active; Activity [5]: Toxic; Activity [11]: 60%; Activity [15]: 80%; Activity [16]: Active |
| COc1cccc(CN2CCC(c3cc(-c4ccnc5[nH]ccc45)[nH]n3)CC2)c1 | – | 5.01 mmHg | Active | 0.22 mmHg | Active | – | – | Active | 34.32% | 0.89 mmHg | Active | 123 nM | Non-toxic | Active | Non-toxic | Active | Minimal_effect; Compound Induced Minimal Changes In Cell Morphology | Active | inactive | Active | inhibition [21]: 85%; inhibition [22]: < 50%; inhibition [23]: < 55%; inhibition [27]: < 55%; inhibition [29]: 64.7%; inhibition [30]: < 50%; IC50 [33]: 96.7 nM; inhibition [34]: < 55%; inhibition [35]: 61.6%; Activity [36]: Active; Activity [37]: Active; inhibition [38]: 70%; Activity [39]: Active; inhibition [40]: 89%; Activity [41]: Active; inhibition [42]: < 50% |
| C[C@H]1CNCCCN1S(=O)(=O)c1cccc2cncc(F)c12 | – | – | inactive | – | Active | inactive | Active | Active | 39.46% | – | Active | – | – | – | – | – | Active | – | – | – | – |
| c1cc(-c2cc(C3CCNCC3)n[nH]2)c2cc[nH]c2n1 | 9.38 mmHg | – | inactive | 2.56 mmHg | Active | – | – | Active | 36.77% | 5 mmHg | Active | 47.2 nM | Non-toxic | Active | Non-toxic | Active | Minimal_effect; Compound Induced Minimal Changes In Cell Morphology | Active | inactive | Active | IC50 [43]: 47.2 nM; inhibition [44]: 98%; IC50 [33]: 33.8 nM; Activity [36]: Active; Activity [37]: Active |
